According to US6410041B1, “Culturing cells in presence of amphipathic weak bases and/or cations and multiple drug resistance inhibitor containing reserpine” (priority 1998, dated 2002):
In brackets after ≈: the same amount, converted by molar mass. Several values for one entry are separate records, joined by “and”; a condition that tells them apart may be missing. Identical values can stand only once. Like-named read-outs stand apart in the source and are kept apart here.

What was measured:
[1] = system: Staphylococcus aureus RN 4222 (WT); experiment: MIC determination in wild type S. aureus; type: cell-based; conditions: for effect of pH 9 on sensitivity / effectiveness: change of pH from 7 to 9
Method: (§1) Determination of minimal inhibitory concentrations (MICs). MICs were determined by serial two-fold dilution of antimicrobials in Mueller-Hinton broth containing chloramphenicol ([…]). […] Around 10^5 cells were inoculated in 1 ml of medium for the test. MICs were read after 18 hours of incubation at 37 C. with aeration. The 50% inhibitory concentration (IC50) was determined by growing cells in microtiter plate wells and reading the optical density after overnight growth at 650 nm.

[2] = system: Staphylococcus aureus KLE 820 (norA−); experiment: microbe, parasite or virus in culture; type: cell-based; conditions: for Sensitivity of norA- as compared to the wild type: in the absence of reserpine; for effect of addition of reserpine on sensitivity to drugs: norA mutant
Source text: Disruption of the norA gene. Chloramphenicol acetyltransferase (CAT) gene was isolated by digesting plasmid pLI50 (10) with Sau3A (New England Biolabs). The CAT gene was cloned into the BamHI site of plasmid pSP72 (Promega) to yield plasmid PCH22. Chromosomal DNA from S. aureus RN4220 was isolated according to the protocol of Qiagen, Inc. Part of the 1050 bp norA gene lacking a 80 bp N-terminus and a 20 bp C-terminus was PCR-amplified from chromosomal DNA using primer A:5′-[…]-[…] and primer B:5′-[…]. This fragment was cloned into the EcoRI/EcoRV site of PCH22 to yield plasmid PCH23. S. aureus were transformed by PCH23 using electroporation (11). Cells were plated on trypticase soy agar (TSA) with chloramphenicol. A transformant colony was picked after 24 hours of incubation at 37 C., regrown, plated on CAM medium and a large colony was picked for further work.
as §1

[3] = system: S. aureus; experiment: MICs of antimicrobials with small molecule MDR inhibitor (I) and high pH; type: cell-based, Staphylococcus aureus; conditions: for Potentiation factor (pH 7/(pH 9 + I)): pH 7 vs pH 9 + I
Method: as §1

[4] = Staphylococcus aureus, RN 4222 (WT), pH 7.2, read-out: MIC
[5] = Staphylococcus aureus, RN 4222 (WT), pH 9, read-out: MIC
[6] = RN 4222 (WT), +R (20 μg/mL reserpine)
[7] = Staphylococcus aureus, RN 4222 (WT), −R (no reserpine), read-out: MIC
[8] = KLE 820 (norA−), +R (20 μg/mL reserpine)
[9] = Staphylococcus aureus, KLE 820 (norA−), −R (no reserpine)
[10] = Staphylococcus aureus, pH 7.2, KLE 820 (norA−), pH 7.2
[11] = Staphylococcus aureus, pH 9, KLE 820 (norA−), pH 9
[12] = Staphylococcus aureus, pH 7, read-out: MIC
[13] = Staphylococcus aureus, pH 9, read-out: MIC

Row | Molecule | MIC [1, 4] [µg/mL] | MIC [1, 5] [µg/mL] | Sensitivity norA− at pH 9 vs. WT at pH 7.2 [2] | MIC [1, 6] [µg/mL] | MIC [1, 7] [µg/mL] | MIC [2, 8] [µg/mL] | MIC [2, 10] [µg/mL] | MIC [2, 11] [µg/mL] | Sensitivity of norA- as compared to the wild type [2] | further results
1 | COc1ccc(C[C@H](N)C(=O)N[C@H]2[C@@H](O)[C@H](n3cnc4c(N(C)C)ncnc43)O[C@@H]2CO)cc1 [Puromycin] | 20 (≈ 42.4 µM) | 2.5 (≈ 5.3 µM) | 8 |  |  |  |  |  |  | 
2 | CCn1cc(C(=O)O)c(=O)c2cc(F)c(N3CCNCC3)cc21 [Norfloxacin] | 1.25 (≈ 3.91 µM) | 1.25 (≈ 3.91 µM) | 4 | 0.67 (≈ 2.1 µM) | 1.25 (≈ 3.91 µM) | 0.33 (≈ 1.03 µM) | 0.33 (≈ 1.03 µM) | 0.33 (≈ 1.03 µM) | 4 | MIC [2, 9]: 0.33 µg/mL (≈ 1.03 µM)
3 | CN[C@H](CC(C)C)C(=O)N[C@H]1C(=O)N[C@@H](CC(N)=O)C(=O)N[C@H]2C(=O)N[C@H]3C(=O)N[C@H](C(=O)N[C@H](C(=O)O)c4cc(O)cc(O)c4-c4cc3ccc4O)[C@H](O)c3ccc(c(Cl)c3)Oc3cc2cc(c3O[C@@H]2O[C@H](CO)[C@@H](O)[C@H](O)[C@H]2O[C@H]2C[C@](C)(N)[C@H](O)[C@H](C)O2)Oc2ccc(cc2Cl)[C@H]1O [Vancomycin] |  |  |  |  |  |  |  |  | 1 | MIC ([1]; Staphylococcus aureus): 1.5 µg/mL (≈ 1.04 µM); MIC ([2]; Staphylococcus aureus): 1.5 µg/mL (≈ 1.04 µM)
4 | CN(C)[C@@H]1C(O)=C(C(N)=O)C(=O)[C@@]2(O)C(O)=C3C(=O)c4c(O)cccc4[C@@](C)(O)[C@H]3C[C@@H]12 [Tetracycline] |  |  |  |  | 0.097 (≈ 0.218 µM) |  |  |  | 1 | 
5 | N=C(N)c1ccc(OCCCCCOc2ccc(C(=N)N)cc2)cc1 [Pentamidine] | 10 (≈ 29.4 µM) |  |  |  |  |  | 0.312 (≈ 0.918 µM) | 0.0097 (≈ 0.0285 µM) |  | MIC ([1]; Staphylococcus aureus, pH 9): 0.312 µg/mL (≈ 0.918 µM); effect of pH 9 on sensitivity / effectiveness [1]: significantly increased the effectiveness; MIC [3, 12]: 10 µg/mL (≈ 29.4 µM); MIC [3, 13]: 0.3 µg/mL (≈ 0.881 µM); MIC ([3]; pH 7 + I (10 μg/mL)): 0.33 µg/mL; Potentiation factor (pH 7/(pH 9 + I)) [3]: 500; MIC ([3]; pH 9 + I): 0.02 µg/mL; MIC ([2]; Staphylococcus aureus, pH 9, pH 9 and norA mutation): 0.01 µg/mL (≈ 0.0294 µM); increase in sensitivity, pH 9 combined with norA mutation ([2]; norA− at pH 9 vs wild type at neutral pH): 1,000 fold; increase in sensitivity by norA mutation ([2]; norA− vs wild type): 30 fold and 33 fold
6 | COC(=O)[C@H]1[C@H]2C[C@@H]3c4[nH]c5cc(OC)ccc5c4CCN3C[C@H]2C[C@@H](OC(=O)c2cc(OC)c(OC)c(OC)c2)[C@@H]1OC [Reserpine] |  |  |  |  |  |  |  |  |  | effect of addition of reserpine on sensitivity to drugs ([1]; wild type): increased the sensitivity of the wild type to drugs; effect of addition of reserpine on sensitivity to drugs [2]: virtually no effect; effect of addition of reserpine on sensitivity to drugs ([2]; listed as Reserpin): failed to further increase sensitivity
7 | [H]/N=C(\N/C(=N/[H])NCCCCCCNC(=N)NC(=N)Nc1ccc(Cl)cc1)Nc1ccc(Cl)cc1 [Chlorhexidine] | 0.5 (≈ 0.989 µM) | 0.06 (≈ 0.119 µM) | 32 |  |  |  | 0.125 (≈ 0.247 µM) | 0.0156 (≈ 0.0309 µM) |  | effect of pH 9 on sensitivity / effectiveness [1]: significantly increased the effectiveness; MIC [3, 12]: 0.5 µg/mL (≈ 0.989 µM); MIC [3, 13]: 0.12 µg/mL (≈ 0.237 µM); potentiation by high pH and MDR inhibitor ([3]; high pH combined with MDR inhibitor / MDR inactivation): 133 fold; MIC ([3]; pH 7 + I (10 μg/mL)): 0.06 µg/mL; Ratio ([3]; pH 7 vs pH 7 + I): 8.3; Potentiation factor (pH 7/(pH 9 + I)) [3]: 133; MIC ([3]; pH 9 + I): 0.0037 µg/mL; Ratio ([3]; pH 9 vs pH 9 + I): 32
8 | Acriflavine |  |  |  | 10 |  | 2.5 |  |  | 8 | MIC ([1]; RN 4222 (WT), −R (no reserpine)): 20 µg/mL; MIC ([2]; KLE 820 (norA−), −R (no reserpine)): 2.5 µg/mL
9 | NC[C@H]1O[C@H](O[C@H]2[C@H](O)[C@@H](O[C@H]3O[C@H](CO)[C@@H](O)[C@H](N)[C@H]3O)[C@H](N)C[C@@H]2N)[C@H](O)[C@@H](O)[C@@H]1O [Kanamycin] |  |  |  |  | 0.33 (≈ 0.681 µM) |  |  |  | 1 | 
10 | CC[n+]1c(-c2ccccc2)c2cc(N)ccc2c2ccc(N)cc21 [EtBr, ethidium bromide] |  |  | 500 | 1.25 |  | 0.33 | 0.312 | 0.01 | 16 | MIC ([1]; Staphylococcus aureus): 5 µg/mL; MIC ([1]; Staphylococcus aureus, pH 7.2): 5 µg/mL; MIC ([1]; Staphylococcus aureus, pH 9): 0.078 µg/mL; MIC [2, 9]: 0.33 µg/mL
